Assay results taken from patent publication US7348412B1, “Ouabain-specific monoclonal antibodies” (priority 1999, dated 2008).

Tests used:
Set-up in all cases: species or system A/J mice
26-10 mAb = settings: free analogue 0.00035-200 μM inhibiting binding of mAb 26-10 to Oua-BGG
Protocol: (§1) Competition ELISA was used first to determine the relative affinity of each mAb for Oua and Dig. The 96-well PVC plates were coated with 50 μl of 5 μg/ml Oua-BGG in PBSA. First we determined the Ab concentration which was not in excess of immobilized antigen. Using the direct binding assay described above, the concentration of Ab at which 50% binding was achieved was ascertained. Inhibition of binding of Abs to Oua-BGG was determined by adding 25 μl Ab (concentrations as determined above) and 25 μl of free Oua (0.001-200 μM, 2-fold dilutions). Percent inhibition is the ratio (OD450 in the presence of 1% BSA−OD450 in the presence of Oua)/(OD450 in the presence of 1% BSA)×100. The relative affinity (IC50) is the Oua concentration that inhibits 50% of the binding of Ab to Oua-BGG.
(§2) Competition ELISA was used to determine the cross reactivity of the mAbs with different digitalis glycosides (Oua, Dig, gitoxin and digitoxin and their derivatives listed in Tables I and II) and with endogenous steroid hormones (cortisone, corticosterone and progesterone). In these assays binding of mAbs to Oua-BGG was determined in the presence or absence of various concentrations (0.00035-200 μM) of free digitalis glycosides and steroid hormones as described above.
(§3) Inhibition assays were performed to identify clones that produce mAbs, the binding of which to Oua-BGG could be inhibited with free Oua at μM concentrations. Abs were titrated in direct binding assays to determine the concentration equivalent to 35-50% binding to Oua-BGG. Binding of Abs to Oua-BGG was determined in the presence or absence of 0.00035-200 μM of free Oua. Ab binding was detected using HRP-goat anti-mouse Ab. […] Percentage inhibition was calculated as described in Materials and Methods.

7-1 mAb = settings: free analogue 0.00035-200 μM inhibiting binding of mAb 7-1 to Oua-BGG
Protocol: as §1, §2, §3

1-10 mAb = settings: free analogue 0.00035-200 μM inhibiting binding of mAb 1-10 to Oua-BGG
Protocol: as §1, §2, §3

5A12 mAb = settings: free analogue 0.00035-200 μM inhibiting binding of mAb 5A12 to Oua-BGG
Protocol: as §1
as §2, with “above. […]” for “above.”

| Compound | IC50 (26-10 mAb) | IC50 (7-1 mAb) | IC50 (1-10 mAb) | IC50 (5A12 mAb) |
| --- | --- | --- | --- | --- |
| CC(=O)O[C@H]1C[C@]2(O)[C@@H]3CC[C@@H]4C[C@@H](O[C@H]5C[C@H](O)[C@H](O[C@H]6C[C@H](O)[C@H](O[C@H]7C[C@H](O)[C@H](O)[C@@H](C)O7)[C@@H](C)O6)[C@@H](C)O5)CC[C@]4(C)[C@H]3CC[C@]2(C)[C@H]1C1=CC(=O)OC1 [16-acetylgitoxin] | 0.5 µM | > 100 µM | > 100 µM | > 100 µM |
| CC(=O)O[C@H]1CC[C@]2(C=O)[C@H]3CC[C@]4(C)[C@@H](C5=CC(=O)OC5)CC[C@]4(O)[C@@H]3CC[C@]2(O)C1 [Acetylstrophanthidin] | 0.2 µM | 6 µM | 6 µM | 2 µM |
| CO[C@@H]1[C@H](O)[C@@H](O[C@@H]2C[C@H]3CC[C@@H]4[C@H](CC[C@]5(C)[C@@H](C6=CC(=O)OC6)CC[C@]45O)[C@@]3(C)[C@H](O)C2)O[C@@H](C)[C@@H]1O [Acovenoside] | 0.2 µM | 8 µM | 8 µM | 5 µM |
| C[C@@H]1O[C@@H](O[C@H]2CC[C@]3(C=O)[C@H]4CC[C@]5(C)[C@@H](C6=CC(=O)OC6)CC[C@]5(O)[C@@H]4CC[C@]3(O)C2)[C@H](O)[C@H](O)[C@H]1O [Convallatoxin] | 0.1 µM | 3 µM | 3 µM | 2 µM |
| C[C@]12C[C@H](O)[C@H]3[C@@H](CCC4=CC(=O)CC[C@@]43C)[C@@H]1CC[C@@H]2C(=O)CO [Corticosterone] | > 100 µM | > 100 µM | > 100 µM | > 100 µM |
| C[C@]12CCC(=O)C=C1CC[C@@H]1[C@@H]2C(=O)C[C@@]2(C)[C@H]1CC[C@]2(O)C(=O)CO [Cortisone] | 100 µM | > 100 µM | > 100 µM | > 100 µM |
| C[C@]12CC[C@H](O)C[C@H]1CC[C@@H]1[C@@H]2CC[C@]2(C)[C@@H](C3=CC(=O)OC3)CC[C@]12O [Digitoxigenin] | 0.04 µM | 4 µM | 4 µM | 4 µM |
| C[C@H]1O[C@@H](O[C@H]2[C@@H](O)C[C@H](O[C@H]3[C@@H](O)C[C@H](O[C@H]4CC[C@@]5(C)[C@H](CC[C@@H]6[C@@H]5CC[C@]5(C)[C@@H](C7=CC(=O)OC7)CC[C@]65O)C4)O[C@@H]3C)O[C@@H]2C)C[C@H](O)[C@@H]1O [Digitoxin] | 0.02 µM | 3 µM | 3 µM | 3 µM |
| CC(=O)O[C@H]1CC[C@@]2(C)[C@H](CC[C@@H]3[C@@H]2C[C@@H](OC(C)=O)[C@]2(C)[C@@H](C4=CC(=O)OC4)CC[C@]32O)C1 [Digoxigenin-3,12-diacetate] | 6 µM | > 100 µM | > 100 µM | > 100 µM |
| C[C@H]1O[C@@H](O[C@H]2[C@@H](O)C[C@H](O[C@H]3[C@@H](O)C[C@H](O[C@H]4CC[C@@]5(C)[C@H](CC[C@@H]6[C@@H]5C[C@@H](O)[C@]5(C)[C@@H](C7=CC(=O)OC7)CC[C@]65O)C4)O[C@@H]3C)O[C@@H]2C)C[C@H](O)[C@@H]1O [Digoxin] | 0.006 µM | > 100 µM | > 100 µM | > 100 µM |
| CC(=O)OC1CCC2(C)C(CCC3C2CCC2(C)C(C4=CC(=O)OC4)C(OC(C)=O)CC32O)C1 (stereo not shown) [Gitoxigenin-3,16-diacetate] | > 100 µM | > 100 µM | > 100 µM | > 100 µM |
| C[C@H]1O[C@@H](O[C@H]2[C@@H](O)C[C@H](O[C@H]3[C@@H](O)C[C@H](O[C@H]4CC[C@@]5(C)[C@H](CC[C@@H]6[C@@H]5CC[C@]5(C)[C@@H](C7=CC(=O)OC7)[C@@H](O)C[C@]65O)C4)O[C@@H]3C)O[C@@H]2C)C[C@H](O)[C@@H]1O [Gitoxin] | 1.5 µM | > 100 µM | > 100 µM | 100 µM |
| C[C@H]1O[C@@H](O[C@H]2CC[C@]3(C=O)[C@H]4CC[C@]5(C)[C@@H](C6=CC(=O)OC6)CC[C@]5(O)[C@@H]4CC[C@]3(O)C2)C[C@H](O)[C@@H]1O [Helveticoside] | 0.2 µM | 150 µM | 150 µM | 150 µM |
| CC(=O)O[C@H]1C[C@]2(O)[C@@H]3CC[C@@H]4C[C@@H](O)CC[C@]4(C)[C@H]3CC[C@]2(C)[C@H]1C1=CC(=O)OC1 [Oleandrigenin] | > 100 µM | > 100 µM | > 100 µM | > 100 µM |
| CO[C@H]1C[C@H](O[C@H]2CC[C@@]3(C)[C@H](CC[C@@H]4[C@@H]3CC[C@]3(C)[C@@H](C5=CC(=O)OC5)[C@@H](OC(C)=O)C[C@]43O)C2)O[C@@H](C)[C@@H]1O [Oleandrin] | > 100 µM | > 100 µM | > 100 µM | > 100 µM |
| C[C@]12C[C@@H](O)[C@H]3[C@@H](CC[C@]4(O)C[C@@H](O)C[C@@H](O)[C@]34CO)[C@@]1(O)CC[C@@H]2C1=CC(=O)OC1 [Ouabagenin] | 0.4 µM | 30 µM | 30 µM | 16 µM |
| C[C@@H]1O[C@@H](O[C@H]2C[C@@H](O)[C@]3(CO)[C@H]4[C@H](O)C[C@]5(C)[C@@H](C6=CC(=O)OC6)CC[C@]5(O)[C@@H]4CC[C@]3(O)C2)[C@H](O)[C@H](O)[C@H]1O [Ouabain] | 0.37 µM | 20 µM | 25 µM | 10 µM |
| CC(=O)[C@H]1CC[C@H]2[C@@H]3CCC4=CC(=O)CC[C@]4(C)[C@H]3CC[C@]12C [Progesterone] | 2 µM | > 100 µM | > 100 µM | > 100 µM |
| C[C@]12CC[C@H]3[C@@H](CC[C@]4(O)C[C@@H](O)CC[C@]34C=O)[C@@]1(O)CC[C@@H]2C1=CC(=O)OC1 [Strophanthidin] | 0.2 µM | 10 µM | 10 µM | 4 µM |
